# Reference: US12382888B2, “Compositions and methods for modulating immunity in plants” (Boyce Thompson Institute for Plant Research, Inc., priority 2013, dated 2025)
# “Also recorded” adds a separate entry of the source.
# How the values were obtained:
# PR-1 [1] = experiment: PR-1 expression in Arabidopsis leaves (semi-quantitative PCR / qRT-PCR)
# tomato suspension cells = assay type: cell-based
# Heterodera schachtii = experiment: Arabidopsis cyst nematode infection assay; assay type: in vivo
# PDF1.2 = PDF1.2 expression in Arabidopsis leaves (semi-quantitative PCR / qRT-PCR)
# [2] = test system: Blumeria graminis f. sp. hordei (Bgh); experiment: Resistance of barley to Blumeria graminis f. sp. hordei (pustule count); settings: barley cv. Golden Promise; leaves sprayed 0.01 μM to 1 μM 48 hours before inoculation; 7 dpi
# Experimental: Barley leaves were sprayed with the indicated concentrations of ascr #18 48 hours before inoculation with Blumeria graminis f. sp. hordei (Bgh). Photograph of barley leave segments infected with Bgh were taken at 7 days post inoculation (dpi). FIG. 15C: Provides the number of Bgh pustules counted at 7 dpi. […] Leaves of barley plants were sprayed with water or ascr #18 (1 μM). Plants were inoculated with Bgh 48 hours post treatment. […] Data are average±SD (n=3, where n denotes the number of independent samples). (*P≤0.05; **P≤0.005; ***P≤0.0005, two-tailed t-test).
# For barley cv. Golden Promise, 7-days old seedlings were pretreated by spraying with different concentrations of ascr #18. Inoculation with Bgh was done 48 hours post treatment using a detached leaflet assay. Briefly 10 leaves from 5 different plants per treatment were cut and transferred to Petri dishes containing 1% water agar. Leaves were then inoculated with Bgh. Water was used as mock control. Pustules were counted 7 dpi.
# PR-1 [3] = experiment: PR-1 protein/transcript induction in tobacco leaves (immunoblot, RT-PCR)
# Experimental: Four-weeks old tobacco plants were syringe-infiltrated with buffer, SA, or a mixture of SA (50 μM or 500 μM) and decreasing concentration of ascr #18 (10, 0.3, and 0.01 μM). PR-1 was assayed 48 hours after treatment by immunoblot using anti-PR-1 antibody.
# PR-1 expression was analyzed 48 hp SA treatment.
# To determine whether ascr #18 affects levels of the prototypic SA-responsive PR-1 gene/protein, tobacco plants were treated with varying concentrations of ascr #18 in the presence or absence of SA (FIG. 2).
# Botrytis cinerea = experiment: Resistance of tomato to Botrytis cinerea B05.01 (detached leaflet assay); assay type: in vivo; settings: tomato cv. M82; root immersion 0.01 μM 48 hours before
# E. coli = experiment: Disk-diffusion assay, E. coli; settings: up to 10 mM
# PR-1, FRK1, PHI1, WRKY53 = experiment: Defense gene expression in Arabidopsis roots (qRT-PCR)
# Experimental: FIG. 18C: Eight days old Arabidopsis seedlings were treated by root bathing using the indicated concentrations of ascr #18. Root samples were collected 6 hours after treatment for RNA extraction. Transcript levels of PHI1, FRK1 and WRKY53 were determined by qRT-PCR and normalized to endogenous UFP (AT4G01000) . *P≤0.05; **P≤0.005; ***P≤0.0005, two-tailed 1-test.
# Roots of Arabidopsis seedlings were treated with water (CK) or with various ascr #18 concentrations for 48 hours. Roots were then collected and used to extract RNA for qRT-PCR analysis.
# For the RNA analyses in roots, Arabidopsis roots were collected from 20-30 seedlings from each treatment and mRNA was isolated using the Dynabeads mRNA DIRECT Kit (Life Technologies). DNA contamination was removed by treatment with DNase I (Life Technologies). First-strand cDNA was synthesized from 50 ng of mRNA using ProtoScript II Reverse Transcriptase (NEB). […] All assays consisted of three technical replicates for each RNA sample. Data was analyzed using the iCycler iQ Real-Time PCR Detection System Software version 3.0a (Bio-Rad). The Arabidopsis UFP gene (AT4G01000) was used as an endogenous reference gene. PCR was started with an activation and DNA denaturation step (95° C. for 3 minutes), then followed by 40 cycles of 95° C. for 20 seconds and 60° C. for 40 seconds.
# Aspergillus fumigatus = experiment: Disk-diffusion assay, Aspergillus fumigatus; settings: up to 10 mM
# [4] = test system: FRK1, PHI1, PR-4, AOS, GSTF6, LOX2; experiment: Defense gene markers in Arabidopsis leaves after root pretreatment (qRT-PCR); assay type: in vivo, Arabidopsis thaliana; settings: root treatment 1 μM
# PR-1 [5] = experiment: PR-1 gene expression in barley leaves (qRT-PCR)
# Experimental: Barley leaves were sprayed with the indicated concentrations of ascr #18 48 hours before inoculation with Blumeria graminis f. sp. hordei (Bgh). […] Leaves of barley plants were sprayed with water or ascr #18 (1 μM). Plants were inoculated with Bgh 48 hours post treatment. Leaves were collected at 16 hpi and used to extract RNA for qRT-PCR analysis. Data are average±SD (n=3, where n denotes the number of independent samples). (*P≤0.05; **P≤0.005; ***P≤0.0005, two-tailed t-test).
# Leaves of barley plants were sprayed with various concentrations of ascr #18 or water (mock) for 48 hours. 48 hours post treatment plants were inoculated with Bgh. Leaves were collected at 16 hpi and used to extract RNA for qRT-PCR analysis.
# For barley analyses, RNA extraction from infected barley leaves was performed with TRIzol (Invitrogen) following the manufacturer's instructions. Freshly extracted mRNA was used for cDNA synthesis using QuantiTect Reverse-Transcription kit (Qiagen). cDNA was stored at −20° C. For qRT-PCR, 50 ng of cDNA was used as template in the Applied Biosystems 7500 FAST real time PCR system. Amplifications were performed in 7.5 μL of SYBER green JumpStart Taq ReadyMix (Sigma-Aldrich) with 0.5 pmol oligonucleotides. […] Ubiquitin was used as an endogenous reference gene.
# B. subtilis = experiment: Disk-diffusion assay, B. subtilis; settings: up to 10 mM
# [6] = test system: Pseudomonas syringae pv. tomato DC3000 (Pst); experiment: Resistance of Arabidopsis to Pseudomonas syringae pv. tomato DC3000 (bacterial growth); assay type: in vivo; settings: for protection against Pst DC3000: compared with 1 μM
# Pst DC3000 = experiment: Resistance of tomato to Pst DC3000 (bacterial growth); assay type: in vivo, Pseudomonas syringae pv. tomato
# [7] = test system: Pseudomonas syringae pv. tabaci; experiment: Resistance of tobacco to Pseudomonas syringae pv. tabaci (bacterial growth); settings: for resistance to P. syringae pv tabaci: 2 dpi
# MPK3 and MPK6 = experiment: MAPK activation phosphorylation in Arabidopsis leaves (immunoblot); assay type: in vivo, Arabidopsis thaliana; settings: leaf infiltration 1 μM; 10 minutes
# [8] = test system: EBF1, ERS1, ERS2, ERF1, ACO1, SAUR34, DRM2, AUX1, IAA6 and ARF19; experiment: Ethylene- and auxin-responsive gene markers in Arabidopsis leaves after root pretreatment (qRT-PCR); assay type: in vivo, Arabidopsis thaliana; settings: root treatment 1 μM, 24 hpt
# [9] = test system: GRAS4, GST, β-1,3-glucanase, AOS2; experiment: Defense response genes in tomato leaves after root pretreatment (qRT-PCR); assay type: in vivo, tomato (Solanum lycopersicum); settings: root treatment 10 nM
# M. incognita = experiment: Arabidopsis root knot nematode infection assay; assay type: in vivo, Meloidogyne incognita
# [10] = leaf infiltration 0.01 μM or 0.3 μM, 24 hpt, qRT-PCR
# [11] = leaf pretreatment by syringe infiltration, 0.01, 0.3, and 10 μM
# [12] = root pretreatment 10 nM, 48 hours
# [13] = root treatment of seedlings, various concentrations, 48 hours
structure (smiles),measurement,setting,value
"CC1O[C@@H](O[C@@H](C)CCCCCCCCC(=O)O)C(O)C[C@H]1O (stereo in doubt) [ascr #18, (10R)-(3′R,5′R-dihydroxy-6′S-methyl-(2H)-tetrahydropyran-2-yloxy)-undecanoic Acid]",PR-1 expression,"PR-1 [1]; ascr #18 (0.01 or 0.3 μM) alone, test leaves or roots treated, 24 hours",induces PR-1 expression even in the absence of SA; also recorded: altered
same,SA-mediated PR-1 expression,PR-1 [1]; ascr #18 co-applied with SA (50 μM) to leaves or applied through roots,suppresses SA-mediated PR-1 expression
same,PR-1 transcripts,PR-1 [1]; [10],elevated; also recorded: Induction
same,PR-1 expression in Arabidopsis,PR-1 [1]; [11],+
same,media alkalinization (pH of culture medium),tomato suspension cells,induced media alkalinization in a dose-dependent manner
same,concentration providing best protection against root infection,"Heterodera schachtii; Arabidopsis, cyst nematodes",10 nM
same,resistance to H. schachtii (females counted),"Heterodera schachtii; media containing 50 nM or 600 nM, 19 dpi",enhances resistance
same,infection with cyst nematode H. schachtii,Heterodera schachtii; [12],significantly reduced infection
same,"PDF1.2 expression, systemic",PDF1.2; a subset of leaves treated,"induced PDF1.2 expression in untreated, as well as treated, leaves"
same,PDF1.2 expression,"PDF1.2; ascr #18 (0.01 or 0.3 μM), test leaves or roots treated, 24 hours",induces expression of the prototypic JA-responsive PDF1.2 gene; also recorded: altered
same,PDF1.2 transcripts,PDF1.2; [10],elevated; also recorded: Induction
same,PDF1.2 expression in Arabidopsis,PDF1.2; [11],+
same,resistance to Bgh (number of pustules),[2],enhances basal resistance; also recorded: increased resistance to Bgh; also recorded: enhanced resistance
same,PR-1 accumulation in presence of SA,"PR-1 [3]; ascr #18 0.01 or 0.3 μM with SA 500 μM or 50 μM, leaf infiltration, vs SA only",enhanced PR-1 accumulation
same,PR-1 protein accumulation,"PR-1 [3]; tobacco leaves, ascr #18 alone 0.01, 0.3, or 10 μM, syringe infiltration, 48 hours",did not induce PR-1 protein accumulation
same,resistance to B. cinerea (lesion size 3 dpi),Botrytis cinerea,did not have a significant effect
same,growth inhibition,E. coli,no growth inhibition
same,root expression of FRK1,"PR-1, FRK1, PHI1, WRKY53; 10 or 50 nM, within 6 hours",induced
same,root expression of PHI1,"PR-1, FRK1, PHI1, WRKY53; 10 or 50 nM, within 6 hours",induced
same,root expression of WRKY53,"PR-1, FRK1, PHI1, WRKY53; 10 or 50 nM, within 6 hours",induced
same,FRK1 expression in roots,"PR-1, FRK1, PHI1, WRKY53; [13]",induces; also recorded: induction
same,PR-1 expression in roots,"PR-1, FRK1, PHI1, WRKY53; [13]",induces; also recorded: induction
same,growth inhibition,Aspergillus fumigatus,no growth inhibition
same,FRK1 expression in leaves,[4]; 6 hpt,induced
same,AOS expression in leaves,[4]; 24 hpt,increased expression
same,GSTF6 expression in leaves,[4]; 24 hpt,increased expression
same,LOX2 expression in leaves,[4]; 24 hpt,increased expression
same,PHI1 expression in leaves,[4]; 24 hpt,induced
same,PR-4 expression in leaves,[4]; 24 hpt,increased expression
same,"PR-1 gene expression, with Bgh inoculation","PR-1 [5]; 1 μM ascr #18 plus inoculation with Bgh, 16 hpi",further enhanced; also recorded: even higher levels of PR-1 expression
same,PR-1 gene expression,"PR-1 [5]; barley leaves sprayed, 1 μM, 48 hours",induces PR-1 gene expression; also recorded: induced PR-1 transcript accumulation; also recorded: induction of PR-1 gene
same,growth inhibition,B. subtilis,no growth inhibition
same,"resistance to Pst, co-treatment","[6]; ascr #18 0.3 μM with SA 50 μM, leaf infiltration",further enhanced resistance; also recorded: strongly enhanced resistance
same,concentration for best/maximal protection against leaf infection (Pst; bacterial and viral pathogens),[6]; in vivo,1 µM
same,resistance to virulent Pst DC3000 (bacterial growth),"[6]; leaf syringe infiltration 0.3 μM 24 hours prior to inoculation, 3 dpi",enhanced resistance; also recorded: low level of protection
same,resistance to P. syringae pv tomato,"[6]; root immersion 0.3 μM, 1 μM, or 5 μM 24 hours prior to inoculation",enhanced resistance
same,protection against Pst DC3000,[6]; root immersion 0.3 μM,less effective
same,protection against Pst DC3000 (bacterial growth),"[6]; root immersion 1 μM, 24 hours before inoculation, 3 dpi",strong protection; also recorded: reduced growth
same,protection against Pst DC3000,[6]; root immersion 5 μM,less effective
same,growth of Pst DC3000 in tomato leaves,Pst DC3000; higher concentrations than 10 nM,less effective
same,growth of Pst DC3000 in tomato leaves,"Pst DC3000; tomato cv. M82, root treatment 10 nM 48 hours before, 4 dpi",significantly reduced the growth
same,"resistance to P. syringae pv tabaci, SA added",[7]; SA 50 μM infiltrated 24 hours after ascr #18 0.01 μM pretreatment,no further enhancement of resistance
same,resistance to virulent P.t. (bacterial growth),"[7]; ascr #18 0.01 μM alone, leaves (infiltration) or roots (immersion) 24 hours before inoculation, 48 hpi",sufficient to enhance resistance; also recorded: enhanced resistance
same,"virulent P.t. growth, both compounds","[7]; ascr #18 and SA provided simultaneously, vs single treatment",no greater reduction
same,resistance to P. syringae pv tabaci,"[7]; leaf syringe infiltration 0.01 μM, inoculation 48 hours after",enhanced resistance
same,resistance to P. syringae pv tabaci,"[7]; root immersion, ascr #18 0.01 μM or 0.03 μM",enhances resistance
same,resistance to P. syringae pv tabaci,[7]; spray 0.01 μM 48 hours before inoculation,enhances resistance
same,"resistance to P. syringae pv tabaci, combination",[7]; spray ascr #18 0.01 μM combined with SA 50 μM,did not further increase resistance
same,phosphorylation of MPK3 and MPK6,MPK3 and MPK6,transient increase in the phosphorylation of both MAPKs; also recorded: Activation
same,auxin or ET-regulated defense signaling,[8]; 10 genes,does not strongly affect auxin or ET-regulated defense signaling
same,SAUR34 expression,[8]; only one of 10 tested genes,enhanced
same,"β-1,3-glucanase transcript level in leaves",[9]; 24 hpt,enhanced levels
same,AOS2 transcript level in leaves,[9]; 48 hpt,significantly elevated
same,GRAS4 transcript level in leaves,[9]; 48 hpt,significantly elevated
same,GST transcript level in leaves,[9]; 48 hpt,significantly elevated
same,"β-1,3-glucanase transcript level in leaves",[9]; 48 hpt,significantly elevated
same,concentration providing best protection against root infection,"M. incognita; Arabidopsis, root knot nematodes",10 nM
same,infection with root knot nematode M. incognita,M. incognita; [12],significantly reduced infection
